{"source": "paper PMC4805251", "about": "“Novel Antimicrobial Peptides EeCentrocins 1, 2 and EeStrongylocin 2 from the Edible Sea Urchin Echinus esculentus Have 6-Br-Trp Post-Translational Modifications” (PLoS ONE, 2016)", "type_in_all_cases": "cell-based", "key": {"[1]": {"system": "S. epidermidis #1 (5179-R1)", "source_text": "(§1) Organic phase extract, SPE eluates and HPLC-fractions were screened for antibacterial activity against two strains of Gram-positive and two strains of Gram-negative bacteria; Corynebacterium glutamicum (ATCC 13032), Staphylococcus aureus (ATCC 9144), Pseudomonas aeruginosa #1 (ATCC 27853) and Escherichia coli #1 (ATCC 25922). For extended antimicrobial bioactivity screening, the following bacterial strains were used, three strains of Gram-positive bacteria; S. epidermidis #1 (5179-R1) kindly provided by Holger Rohde, S. epidermidis #2, RP62A (ATCC 35984) and Bacillus subtilis (ATCC 23857) in addition to the Gram-negative P. aeruginosa #2, PA 01 (ATCC 15692, DSM 19880) and E. coli #2, NR 698 (MC4100/ptD4213).\n(§2) Cultures stored at -80°C were smeared onto agar plates and cultured for 24 h at 35°C. One colony of each bacterial strain was transferred to 5 ml liquid Müller-Hinton (MH, Difco, Lawrence, KS, USA) medium in a glass tube and left shaking at room temperature overnight at 600 rpm. The cultures of actively growing bacteria (20 μl) were further inoculated in 5 ml MH medium and left shaking for 2 h at room temperature. The antibacterial assays were performed as previously described by. Briefly, the bacterial cultures were diluted with medium to 1.3–1.5 × 10^4 bacteria/ml final concentrations and an aliquot of 50 μl was added to each well in 96-well Nunclon^TM microtiter plates (Nagle Nunc Int., Denmark) preloaded with 50 μl test sample solutions, i.e. extracts, eluates or peptides.\n(§3) The test plates were incubated for 24 h at 35°C with optical density (OD595) recorded every hour using an Envision 2103 multilabel reader, controlled by the Wallac Envision manager (PerkinElmer, CT, USA). Antibacterial activity was defined as a sample showing >90% inhibition (as measured by optical density) compared to the negative (growth) controls, consisting of bacteria and water. Oxytetracycline (20 μM) served as a positive (inhibition) control. The minimum inhibitory concentration (MIC) was defined as the lowest concentration of a sample displaying >90% inhibition.\n(§4) ACN-phases and SPE eluates were tested with two-fold serial dilutions ranging from 5.0 to 0.005 mg/ml (5.0, 2.5, 1.25, 0.63, 0.31, 0.16, 0.08, 0.04, 0.02, 0.01, 0.005 mg/ml) whereas HPLC-fractions were tested undiluted for antibacterial activity. Pure, native peptides and synthetic peptides (described in section 2.11) were tested for antimicrobial activity in concentrations ranging from 100 to 0.1 μM in two-fold serial dilutions (100, 50, 25, 12.5, 6.25, 3.13, 1.56, 0.78, 0.39, 0.20, 0.10 μM). Antimicrobial assays involving natural peptides (i.e. fractionated natural material) were run only once due to limited quantities, whereas all other assays were run in triplicates."}, "[2]": {"system": "Escherichia coli #1 (ATCC 25922)", "source_text": "as §1, §2, §3, §4"}, "[3]": {"system": "Pseudomonas aeruginosa #1 (ATCC 27853)", "source_text": "as §1, §2, §3, §4"}, "[4]": {"system": "Staphylococcus aureus (ATCC 9144)", "source_text": "as §1, §2, §3, §4"}, "[5]": {"system": "S. epidermidis #2, RP62A (ATCC 35984)", "source_text": "as §1, §2, §3, §4"}, "[6]": {"system": "P. aeruginosa #2, PA 01 (ATCC 15692, DSM 19880)", "source_text": "as §1, §2, §3, §4"}, "[7]": {"system": "Corynebacterium glutamicum (ATCC 13032)", "source_text": "as §1, §2, §3, §4"}, "[8]": {"system": "Bacillus subtilis (ATCC 23857)", "source_text": "as §1, §2, §3, §4"}, "[9]": {"system": "E. coli #2, NR 698 (MC4100/ptD4213)", "source_text": "as §1, §2, §3, §4"}, "[10]": {"system": "Gram-positive and Gram-negative bacteria (tested strains)", "settings": "24 h", "source_text": "as §1, with “(MC4100/ptD4213). […]” for “(MC4100/ptD4213).”\nThe test plates were incubated for 24 h at 35°C with optical density (OD595) recorded every hour using an Envision 2103 multilabel reader, controlled by the Wallac Envision manager (PerkinElmer, CT, USA). […]\nACN-phases and SPE eluates were tested with two-fold serial dilutions ranging from 5.0 to 0.005 mg/ml (5.0, 2.5, 1.25, 0.63, 0.31, 0.16, 0.08, 0.04, 0.02, 0.01, 0.005 mg/ml) whereas HPLC-fractions were tested undiluted for antibacterial activity. […] Antimicrobial assays involving natural peptides (i.e. fractionated natural material) were run only once due to limited quantities, whereas all other assays were run in triplicates."}, "[11]": {"system": "Aureobasidium pullulans", "experimental": "(§5) The synthetic peptides (see section 2.11) were also screened for antifungal activity against Candida albicans (ATCC 10231), Saccharomyces cerevisiae, Rhodotorula sp., Aureobasidium pullulans and Cladosporium sp. The antifungal assay was performed as described previously. Briefly, fungal spores were dissolved in potato dextrose broth (Difco, Lawrence, KS, USA) to a concentration of 4 × 10^5 spores/ml. The spores (50 μl) were inoculated on 96-well Nunclon^TM microtiter plates containing the synthetic peptides (50 μl) dissolved in MQ-H2O. […] MIC was defined as the lowest concentration of peptide giving no visible fungal growth. The negative (growth) control contained medium and fungal solution.\nas §4"}, "[12]": {"system": "Rhodotorula sp.", "experimental": "as §5, §4"}, "[13]": {"system": "Cladosporium sp.", "experimental": "as §5, §4"}, "[14]": {"system": "Candida albicans (ATCC 10231)", "experimental": "as §5, §4"}, "[15]": {"system": "Saccharomyces cerevisiae", "experimental": "as §5, §4"}}, "note": "Like-named read-outs stand apart in the source and are kept apart here. Ends that are not written are not given here.", "data": [{"sequence": "GWWRRTVDKVRNAGRKVAGFASKACGALGH [EeCentrocin 1 HC]", "values": [{"measurement": "MIC S. epidermidis #1", "setting": "[1]; #1 (5179-R1, 24 h)", "value": 6.25, "unit": "µM"}, {"measurement": "MIC raw data S. epidermidis #1", "setting": "[1]; parallel 1 of three", "value": 6.25, "unit": "µM"}, {"measurement": "MIC raw data S. epidermidis #1", "setting": "[1]; parallel 2 of three", "value": 6.25, "unit": "µM"}, {"measurement": "MIC raw data S. epidermidis #1", "setting": "[1]; parallel 3 of three", "value": 6.25, "unit": "µM"}, {"measurement": "MIC E. coli #1", "setting": "[2]; ATCC 25922, 24 h", "value": 0.78, "unit": "µM"}, {"measurement": "MIC raw data E. coli #1", "setting": "[2]; parallel 1 of three", "value": 0.78, "unit": "µM"}, {"measurement": "MIC raw data E. coli #1", "setting": "[2]; parallel 2 of three", "value": 0.78, "unit": "µM"}, {"measurement": "MIC raw data E. coli #1", "setting": "[2]; parallel 3 of three", "value": 0.78, "unit": "µM"}, {"measurement": "MIC P. aeruginosa #1", "setting": "[3]; MH medium, 24 h at 35°C, OD595, >90% inhibition, value of Table 2, native peptides run once, synthetic in triplicates", "value": 1.56, "unit": "µM"}, {"measurement": "MIC raw data P. aeruginosa #1", "setting": "[3]; parallel 1 of three", "value": 1.56, "unit": "µM"}, {"measurement": "MIC raw data P. aeruginosa #1", "setting": "[3]; parallel 2 of three", "value": 1.56, "unit": "µM"}, {"measurement": "MIC raw data P. aeruginosa #1", "setting": "[3]; parallel 3 of three", "value": 1.56, "unit": "µM"}, {"measurement": "MIC S. aureus", "setting": "[4]; ATCC 9144, 24 h", "value": 3.13, "unit": "µM"}, {"measurement": "MIC raw data S. aureus", "setting": "[4]; parallel 1 of three", "value": 3.13, "unit": "µM"}, {"measurement": "MIC raw data S. aureus", "setting": "[4]; parallel 2 of three", "value": 3.13, "unit": "µM"}, {"measurement": "MIC raw data S. aureus", "setting": "[4]; parallel 3 of three", "value": 3.13, "unit": "µM"}, {"measurement": "MIC S. epidermidis #2", "setting": "[5]; ATCC 35984, 24 h", "value": 3.13, "unit": "µM"}, {"measurement": "MIC raw data S. epidermidis #2", "setting": "[5]; parallel 1 of three", "value": 3.13, "unit": "µM"}, {"measurement": "MIC raw data S. epidermidis #2", "setting": "[5]; parallel 2 of three", "value": 3.13, "unit": "µM"}, {"measurement": "MIC raw data S. epidermidis #2", "setting": "[5]; parallel 3 of three", "value": 3.13, "unit": "µM"}, {"measurement": "MIC P. aeruginosa #2", "setting": "[6]; ATCC 15692, 24 h", "value": 3.13, "unit": "µM"}, {"measurement": "MIC raw data P. aeruginosa #2", "setting": "[6]; parallel 1 of three", "value": 3.13, "unit": "µM"}, {"measurement": "MIC raw data P. aeruginosa #2", "setting": "[6]; parallel 2 of three", "value": 3.13, "unit": "µM"}, {"measurement": "MIC raw data P. aeruginosa #2", "setting": "[6]; parallel 3 of three", "value": 3.13, "unit": "µM"}, {"measurement": "MIC C. glutamicum", "setting": "[7]; ATCC 13032, 24 h", "value": 0.39, "unit": "µM"}, {"measurement": "MIC raw data C. glutamicum", "setting": "[7]; parallel 1 of three", "value": 0.39, "unit": "µM"}, {"measurement": "MIC raw data C. glutamicum", "setting": "[7]; parallel 2 of three", "value": 0.39, "unit": "µM"}, {"measurement": "MIC raw data C. glutamicum", "setting": "[7]; parallel 3 of three", "value": 0.39, "unit": "µM"}, {"measurement": "MIC B. subtilis", "setting": "[8]; MH medium, 24 h at 35°C, OD595, lowest concentration with >90% inhibition, value of Table 2, synthetic peptides in triplicates", "value": 1.56, "unit": "µM"}, {"measurement": "MIC raw data B. subtilis", "setting": "[8]; parallel 1 of three", "value": 1.56, "unit": "µM"}, {"measurement": "MIC raw data B. subtilis", "setting": "[8]; parallel 2 of three", "value": 1.56, "unit": "µM"}, {"measurement": "MIC raw data B. subtilis", "setting": "[8]; parallel 3 of three", "value": 0.78, "unit": "µM"}, {"measurement": "MIC E. coli #2", "setting": "[9]; MH medium, 24 h at 35°C, OD595, >90% inhibition, value of Table 2, triplicates", "value": 1.56, "unit": "µM"}, {"measurement": "MIC raw data E. coli #2", "setting": "[9]; parallel 1 of three", "value": 1.56, "unit": "µM"}, {"measurement": "MIC raw data E. coli #2", "setting": "[9]; parallel 2 of three", "value": 1.56, "unit": "µM"}, {"measurement": "MIC raw data E. coli #2", "setting": "[9]; parallel 3 of three", "value": 1.56, "unit": "µM"}, {"measurement": "MIC range towards bacteria", "setting": "[10]", "value": "0.39 to 6.25", "unit": "µM"}, {"measurement": "MIC A. pullulans", "setting": "[11]; 24 h", "value": 12.5, "unit": "µM"}, {"measurement": "MIC raw data A. pullulans", "setting": "[11]; parallel 1 of three", "value": 12.5, "unit": "µM"}, {"measurement": "MIC raw data A. pullulans", "setting": "[11]; parallel 2 of three", "value": 12.5, "unit": "µM"}, {"measurement": "MIC raw data A. pullulans", "setting": "[11]; parallel 3 of three", "value": 12.5, "unit": "µM"}, {"measurement": "MIC raw data Rhodotorula sp.", "setting": "[12]; parallel 1 of three", "value": 12.5, "unit": "µM"}, {"measurement": "MIC raw data Rhodotorula sp.", "setting": "[12]; parallel 2 of three", "value": 12.5, "unit": "µM"}, {"measurement": "MIC raw data Rhodotorula sp.", "setting": "[12]; parallel 3 of three", "value": 12.5, "unit": "µM"}, {"measurement": "MIC Rhodotorula sp.", "setting": "[12]; potato dextrose broth, 24 h at room temperature, visual, no visible fungal growth, value of Table 2, triplicates", "value": 12.5, "unit": "µM"}, {"measurement": "MIC Cladosporium sp.", "setting": "[13]; 24 h", "value": ">100", "unit": "µM"}, {"measurement": "MIC raw data Cladosporium sp.", "setting": "[13]; parallel 1 of three", "value": ">100", "unit": "µM"}, {"measurement": "MIC raw data Cladosporium sp.", "setting": "[13]; parallel 2 of three", "value": ">100", "unit": "µM"}, {"measurement": "MIC raw data Cladosporium sp.", "setting": "[13]; parallel 3 of three", "value": ">100", "unit": "µM"}, {"measurement": "MIC C. albicans", "setting": "[14]; ATCC 10231, 24 h", "value": 100, "unit": "µM"}, {"measurement": "MIC raw data C. albicans", "setting": "[14]; parallel 1 of three", "value": 100, "unit": "µM"}, {"measurement": "MIC raw data C. albicans", "setting": "[14]; parallel 2 of three", "value": 100, "unit": "µM"}, {"measurement": "MIC raw data C. albicans", "setting": "[14]; parallel 3 of three", "value": 100, "unit": "µM"}, {"measurement": "MIC S. cerevisiae", "setting": "[15]; 24 h", "value": 50, "unit": "µM"}, {"measurement": "MIC raw data S. cerevisiae", "setting": "[15]; parallel 1 of three", "value": 50, "unit": "µM"}, {"measurement": "MIC raw data S. cerevisiae", "setting": "[15]; parallel 2 of three", "value": 50, "unit": "µM"}, {"measurement": "MIC raw data S. cerevisiae", "setting": "[15]; parallel 3 of three", "value": 50, "unit": "µM"}]}]}
